8 compounds from ChEMBL document CHEMBL1149358, “Synthesis and dipeptidyl peptidase inhibition of N-(4-substituted-2,4-diaminobutanoyl)piperidines” (Bioorg Med Chem Lett, 2006) can be followed below.

In general, IC50 refers to the point on the concentration scale where inhibition reaches its midpoint. A higher IC50 goes with weaker potency in that assay. One may read the Ki as a measure of affinity in units of concentration, obtained from inhibition or displacement. A low value points to tighter binding.

The target in one test is Dipeptidyl peptidase 8 (Homo sapiens, UniProt Q6V1X1). Briefly: Inhibition of DPP8.
A further test addresses Dipeptidyl peptidase 4 (Homo sapiens, UniProt P27487). Briefly: Inhibition of DPP4.
Test [1] has as its target T1, Dipeptidyl peptidase 2 (Homo sapiens, UniProt Q9UHL4). In words: Inhibition of DPP2.
The species entered for a further test is Homo sapiens. In words: Selectivity for DPP2 over DPP8.
Test [2] deals with T1, Dipeptidyl peptidase 2. In words: Inhibition of DPP II.

Dipeptidyl peptidase 8, sequence (Q6V1X1 whole entry): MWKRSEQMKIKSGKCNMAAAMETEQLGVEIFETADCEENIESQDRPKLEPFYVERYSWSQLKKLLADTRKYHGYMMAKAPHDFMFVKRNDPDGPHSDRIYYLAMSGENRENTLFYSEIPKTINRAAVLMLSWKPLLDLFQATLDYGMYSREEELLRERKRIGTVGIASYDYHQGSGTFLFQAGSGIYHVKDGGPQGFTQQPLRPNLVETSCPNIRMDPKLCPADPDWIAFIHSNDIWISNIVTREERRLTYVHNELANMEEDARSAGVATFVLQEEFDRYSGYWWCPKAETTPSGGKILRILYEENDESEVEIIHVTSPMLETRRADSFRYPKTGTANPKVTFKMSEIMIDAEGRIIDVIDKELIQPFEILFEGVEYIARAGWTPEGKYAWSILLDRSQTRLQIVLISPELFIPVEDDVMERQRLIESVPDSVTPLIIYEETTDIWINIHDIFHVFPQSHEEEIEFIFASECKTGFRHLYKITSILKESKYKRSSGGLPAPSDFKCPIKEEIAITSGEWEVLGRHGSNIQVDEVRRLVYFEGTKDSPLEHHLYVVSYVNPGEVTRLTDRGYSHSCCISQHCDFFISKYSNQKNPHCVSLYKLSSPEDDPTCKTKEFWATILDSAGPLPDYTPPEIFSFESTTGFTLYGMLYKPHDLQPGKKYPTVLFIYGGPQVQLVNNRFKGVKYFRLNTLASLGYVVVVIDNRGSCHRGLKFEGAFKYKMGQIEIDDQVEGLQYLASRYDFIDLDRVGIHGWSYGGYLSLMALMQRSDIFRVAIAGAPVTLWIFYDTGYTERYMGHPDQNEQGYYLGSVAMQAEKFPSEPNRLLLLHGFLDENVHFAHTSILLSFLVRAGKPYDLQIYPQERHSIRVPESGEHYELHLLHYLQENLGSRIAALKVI
Dipeptidyl peptidase 4, sequence (P27487 whole entry): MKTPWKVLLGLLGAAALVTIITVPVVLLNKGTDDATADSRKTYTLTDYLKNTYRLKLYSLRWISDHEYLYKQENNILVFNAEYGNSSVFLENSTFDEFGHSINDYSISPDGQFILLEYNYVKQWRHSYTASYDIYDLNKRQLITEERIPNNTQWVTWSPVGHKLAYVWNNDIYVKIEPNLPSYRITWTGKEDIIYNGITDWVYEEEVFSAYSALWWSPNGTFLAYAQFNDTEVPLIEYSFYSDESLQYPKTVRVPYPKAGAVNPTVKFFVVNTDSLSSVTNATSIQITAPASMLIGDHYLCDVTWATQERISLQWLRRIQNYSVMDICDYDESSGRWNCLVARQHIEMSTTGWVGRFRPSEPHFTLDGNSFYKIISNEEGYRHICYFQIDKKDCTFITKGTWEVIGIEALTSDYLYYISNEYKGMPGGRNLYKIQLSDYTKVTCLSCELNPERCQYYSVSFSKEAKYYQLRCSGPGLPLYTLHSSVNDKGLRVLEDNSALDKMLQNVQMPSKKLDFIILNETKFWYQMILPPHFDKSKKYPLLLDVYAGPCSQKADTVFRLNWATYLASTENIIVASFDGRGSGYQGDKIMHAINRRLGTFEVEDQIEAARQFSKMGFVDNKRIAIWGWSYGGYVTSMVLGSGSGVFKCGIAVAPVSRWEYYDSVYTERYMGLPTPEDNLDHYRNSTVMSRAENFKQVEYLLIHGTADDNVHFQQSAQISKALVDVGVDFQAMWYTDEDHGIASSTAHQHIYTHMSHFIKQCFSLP

Consider `CCC(C)[C@@H](C[C@H](N)C(=O)N1CCCCC1)NCc1ccc(Cl)cc1` (some centres not stated), for which the IC50 at Dipeptidyl peptidase 8 was over 100 µM; against Dipeptidyl peptidase 4, 234 µM.

As for `CC(C)[C@@H](C[C@H](N)C(=O)N1CCCCC1)NCc1ccc(Cl)cc1`, the IC50 on Dipeptidyl peptidase 8 is over 100 µM; against Dipeptidyl peptidase 4, over 125 µM.

Consider `N[C@@H](CCNCc1ccc(Cl)cc1)C(=O)N1CCCCC1`, for which the values for the IC50 against Dipeptidyl peptidase 2 [1], at Dipeptidyl peptidase 8 and against Dipeptidyl peptidase 4 were 0.00022 µM, 142 µM and 196 µM, respectively. For the same compound, the Selectivity index in the test listed under Homo sapiens was over 10000. Besides, the Ki on Dipeptidyl peptidase 2 [2] amounted to 82 pM.

On to `N[C@@H](C[C@@H](Cc1ccccc1)NCc1ccc(Cl)cc1)C(=O)N1CCCCC1`, for which the 50% inhibitory concentration (IC50) on Dipeptidyl peptidase 8 is over 500 µM; against Dipeptidyl peptidase 4 it was over 125 µM.

As for `CC[C@@H](C[C@H](N)C(=O)N1CCCCC1)NCc1ccc(Cl)cc1`, the 50% inhibitory concentration (IC50) at Dipeptidyl peptidase 8 and at Dipeptidyl peptidase 4 was over 100 µM in each case.

Take `N[C@@H](C[C@H](Cc1ccccc1)NCc1ccc(Cl)cc1)C(=O)N1CCCCC1`: the IC50 at Dipeptidyl peptidase 8 is over 100 µM; on Dipeptidyl peptidase 4 it was over 125 µM.

Consider `C[C@@H](C[C@H](N)C(=O)N1CCCCC1)NCc1ccc(Cl)cc1`, for which the IC50 on Dipeptidyl peptidase 4 came out at 325 µM.

On Dipeptidyl peptidase 4, `C[C@H](C[C@H](N)C(=O)N1CCCCC1)NCc1ccc(Cl)cc1` displayed an IC50 of over 250 µM.
